Assay: Determination of pharmacokinetic parameters in rats
Conditions: for AUC: male, Wistar (RccHan:WIST), rat, po, 2 mg/kg
Protocol: Male Wistar rats (RccHan:WIST) were obtained from Harlan (Venray, The Netherlands) and used for pharmacokinetic experiments after an acclimatization period of at least 7 days. The body weight of the rats was about 250 g at the day of the experiment. Two days prior to dosing, rats were anesthetized for surgery via inhalation of isoflurane (4-5% for induction and 1.5-3% for maintenance) in oxygen. Buprenorphine was dosed as analgesic at 0.03 mg/kg sc half an hour before surgery. Under aseptic conditions, catheters were implanted into jugular vein for dosing and carotid artery to allow for multiple serial blood sampling. […] Compounds were administered intravenously via a 5-minute infusion at doses of 0.5 or 1 mg/kg body weight formulated as solutions in water prepared by pH adjustment or as an aqueous mixed micellar vehicle based on phospholipids and bile acids (mixed micelles). […] Oral formulations were solutions in water prepared by pH adjustment or dispersions prepared by addition of a DMSO stock solution of the compounds to methylcellulose (0.5% w/v) in water. […] Blood samples were centrifuged at 3000 g (10 minutes, 4° C.) and plasma was submitted to LC-MS/MS analysis.

With `CSc1ncc(-c2cc(C(F)(F)F)ccc2N2CCN(C(=O)Cn3nc(C)cc3C)CC2)cn1` [reference compound 2, 2-(3,5-Dimethyl-pyrazol-1-yl)-1-{4-[2-(2-methylsulfanyl-pyrimidin-5-yl)-4-trifluoromethyl-phenyl]-piperazin-1-yl}-ethanone] as the molecule, how does the AUC (plasma) read?
The AUC was 202 ng·h/mL.

For `CNc1ncc(-c2cc(C(F)(F)F)ccc2N2CCN(C(=O)Cn3nc(C)cc3C)CC2)cn1` [reference compound 3, 2-(3,5-Dimethyl-pyrazol-1-yl)-1-{4-[2-(2-methylamino-pyrimidin-5-yl)-4-trifluoromethyl-phenyl]-piperazin-1-yl}-ethanone], which AUC (plasma, pH 3.03) is on record?
The AUC was 271 ng·h/mL.

For `Cc1nc(C)n(CC(=O)N2CCN(c3sc(C(F)(F)F)nc3-c3cnc(C(F)(F)F)nc3)C[C@H]2C)n1` [Example 24, 2-(3,5-Dimethyl-[1,2,4]triazol-1-yl)-1-{(R)-2-methyl-4-[2-trifluoromethyl-4-(2-trifluoromethyl-pyrimidin-5-yl)-thiazol-5-yl]-piperazin-1-yl}-ethanone], which “plasma concentration after oral administration” value (compared to reference compounds disclosed in WO 2010/126811) is on record?
The value was “surprisingly high plasma concentration”.

And the AUC (in vivo, pH 2.1)?
The AUC was 14000 ng·h/mL.

Source: patent US10259807B2, “1-(piperazin-1-yl)-2-([1,2,4]triazol-1-yl)-ethanone derivatives” (Idorsia Pharmaceuticals Ltd., priority 2013, dated 2019)
